Source: US20250326718A1, “4-PHENYL-2-PYRROLIDINONES AND METHODS OF USING THEREOF” (North Carolina State University, priority 2022, published 2025)
≈ marks a conversion by molar mass, not a printed value. Structures can show the parent of a compound that is named as a salt. Where two headings read alike, the source gives them in different places.

How the values were obtained:
[1] = tested on: MRSA (ATCC 33591); experiment: Broth microdilution MIC, MRSA ATCC 33591; assay type: cell-based; settings: Staphylococcus aureus; Table 1, Compounds 1-15; preliminary data, modified non-standard conditions (pH 9), solubility-limited
Description: (§1) General information—Biological Assays. Methicillin-resistant and methicillin sensitive Staphylococcus aureus (MRSA and MSSA respectively) strains were obtained from the Laboratory of Professor Christian Melander (NCSU) (ATCC BAA 44 and 33591) and Dr. Jessica Gilbertie (ATCC 25923). Bacteria were kept in frozen stocks on glycerol at −80° C. until use. Bacteria was streaked onto tryptic-soy agar for colony isolation. Mueller-Hinton broth (MHB, 211443-BD), tryptic soy broth (TSB, Remel: R455052) and D-glucose (CAS: 492-62-6) were purchased from Fisher Scientific. Tryptic soy agar (TSA, cat. #22091) and Linezolid (cat. #P70014) were purchased from Sigma-Aldrich. Bacteria for biofilm inhibition were cultured overnight in TSB-G (tryptic soy broth with 0.5% glucose supplement) in 96 well plates. All assays were run in duplicate and repeated at least two separate times for MIC assays and at least three separate times for biofilm inhibition. All compounds were dissolved in molecular biology grade DMSO as 10 mM stock solutions. Optical densities were measured using a Thermo Scientific Genesys 20 spectrophotometer. Data for biofilm inhibition were collected using a BioTek ELx808 Microplate Reader. All graphs were generated and analyzed using GraphPad Prism 7.
Broth microdilution method for determination of minimum inhibitory concentrations. As prescribed by the Clinical and Laboratory Standards Institute (CLSI) M07-A8, Vol. 29 (2) MSSA (ATCC 25923) and MRSA (ATCC BAA 44 and 33591) was grown in MHB for 6-8 h; this culture was used to inoculate fresh MHB (5×10^5 CFU/mL). The resulting bacterial suspension was aliquoted (1 mL) into 1.5 mL Eppendorf tubes and compound was added from a 10 mM DMSO stock to achieve the desired initial starting concentration (typically 128 μg/mL). Linezolid (from a 10 mM DMSO stock) was used as a positive control. Inoculated media not treated with compound served as the negative control. The MIC was determined by microbroth dilution following the CLSI guidelines. The MIC was defined as the lowest concentration of antibiotic with no visible growth. The plate was sealed and incubated under stationary conditions at 37° C.
The antimicrobial activity of Compounds 1-15 was assessed initially against MSSA (ATCC 25923) and MRSA (ATCC 33591) strains. It was observed that almost all these compounds precipitated in aqueous solution at concentrations equal or higher than 8-16 μg/mL. In order to obtain preliminary results on the antimicrobial activity for these compounds, the standard conditions of the antimicrobial assays used where modified to favor the water solubility of these compounds.

[2] = tested on: MRSA (ATCC BAA 44) biofilm; experiment: Inhibition of MRSA biofilm formation (crystal violet); assay type: cell-based; settings: Staphylococcus aureus, 24 h, Table 1
Description: as §1
Determination of the inhibitory effect of test compounds on MRSA biofilm formation. Inhibition assays were performed using a procedure adapted from S. A. Rogers and C. Melander, Angew. Chem. Int. Ed., 2008, 47, 5229-5231, which is hereby incorporated herein by reference. Briefly, the inhibition assays were performed by subculturing an overnight culture of MRSA (ATCC BAA 44) to an OD600 of 0.01 in TSB-G (tryptic soy broth with a 0.5% glucose supplement). Stock solutions of predetermined concentrations of the test compound were then made using the inoculated TSB-G. These stock solutions were aliquoted (100 μL) into the wells of the 96-well microtiter plate. Sample plates were sealed then incubated for 24 h at 37° C. After incubation, the medium was discarded from the wells and the plates were washed 2× with PBS. Prior to staining, plates were left to dry at ambient temperature for 2-3 h. Plates were then stained with 0.1% solution of crystal violet (CV, 125 μL) and then incubated at ambient temperature for 30 min. Plates were washed with PBS again and the remaining stain was solubilized with 99% ethanol (200 μL). A sample of solubilized CV stain (110 μL) from each well was transferred to the corresponding wells of a polystyrene microtiter dish. Biofilm biomass was quantified by measuring the OD540 of each well and inhibition was calculated as a percentage of the control (no compound); a negative control lane wherein no biofilm was formed served as a background and was subtracted out. Percent inhibition was then plotted against concentration in Prism 7. Each of the four experiments were plotted separately and S15 analyzed by a normalized nonlinear regression. The graphs on the following pages were generated from an average of the total data set. Biofilm data represent four separate experiments, with each experiment performed in duplicate (average of 8 data points for each concentration tested, unless otherwise noted).

[3] = tested on: MSSA (ATCC 25923); experiment: Broth microdilution MIC, MSSA ATCC 25923; assay type: cell-based; settings: Staphylococcus aureus, read-out: MIC value against MSSA ATCC 25923
[4] = tested on: MSSA (ATCC 25923) biofilms; experiment: Minimum Biofilm Eradication Concentration (MBEC), Calgary Biofilm Device; assay type: cell-based, Staphylococcus aureus; settings: antibiotic alone
Description: MBEC concentrations were measured using a procedure adapted from H. Ceri, et al., J Clin. Microbiol., 1999, 1771-1776, which is hereby incorporated herein by reference. Briefly, biofilm eradication experiments were performed using MSSA (ATCC 25923) and the Calgary Biofilm Device (CBD) to determine MBEC values for various compounds of interest (Innovotech, product code: 19111). The Calgary device is a 96-well plate with a lid containing 96 pegs that sit in the media contained in the bottom well. Biofilm are established on the individual pegs. The established biofilm (contained on the individual peg) can then be transferred to a new base well for MBEC testing. For the MBEC assay, an overnight culture of MSSA (ATCC 25923) was adjusted to 0.5 McFarland in MHB-G. The CBD was inoculated with 100 μL of the 0.5 McFarland and incubated at 37° C. for 24 hours to establish biofilms. The CBD lid containing the established biofilms on individual pegs was removed, washed 3× with PBS and transferred to another 96-well plate containing serial dilutions of the test compounds (the “challenge plate”) and incubated at 37° C. for 24 hours. […] The plate was then sonicated for sonicated for 30 minutes to disperse biofilms on S16 the pegs into the fresh MHB in the base well. After sonication, the plate was incubated for 24 hours at 37° C.

| SMILES | MIC [1] | inhibition at 5 µM [2] | inhibition at 40 µM [2] | MIC [3] | MBEC value against MSSA ATCC 25923 [4] | MIC ([3]; antibiotic alone) |
| --- | --- | --- | --- | --- | --- | --- |
| CN[C@H](CC(C)C)C(=O)N[C@H]1C(=O)N[C@@H](CC(N)=O)C(=O)N[C@H]2C(=O)N[C@H]3C(=O)N[C@H](C(=O)N[C@H](C(=O)O)c4cc(O)cc(O)c4-c4cc3ccc4O)[C@H](O)c3ccc(c(Cl)c3)Oc3cc2cc(c3O[C@@H]2O[C@H](CO)[C@@H](O)[C@H](O)[C@H]2O[C@H]2C[C@](C)(N)[C@H](O)[C@H](C)O2)Oc2ccc(cc2Cl)[C@H]1O [Vancomycin, vancomycin hydrochloride, reference compound] |  |  |  | 0.5 µg/mL | 2048 pug/mL |  |
| CCC1C(c2ccc(C(F)(F)F)cc2)=C(O)C(=O)N1c1ccc(OC)c(OC)c1 (stereo not shown) [Compound 5, 1-(3,4-Dimethoxyphenyl)-5-ethyl-3-hydroxy-4-(4-(trifluoromethyl)phenyl)-1,5-dihydro-2H-pyrrol-2-one] | > 128 µg/mL | 17% | 70% |  |  |  |
| CCC1C(c2ccc(C(F)(F)F)cc2)=C(O)C(=O)N1Cc1ccc(OC)cc1OC (stereo not shown) [Compound 15] | > 128 µg/mL | 63% | 57% |  |  |  |
| Cc1onc(-c2ccccc2)c1C(=O)N[C@@H]1C(=O)N2[C@@H]1SC(C)(C)[C@@H]2C(=O)O [Oxacillin, oxacillin sodium monohydrate, reference compound] |  |  |  |  | 2048 pug/mL | 0.5 µg/mL |
| O=C1C(O)=C(c2ccc(C(F)(F)F)cc2)CN1c1ccccc1 [Compound 9, 3-Hydroxy-1-phenyl-4-(4-(trifluoromethyl)phenyl)-1,5-dihydro-2H-pyrrol-2-one] | > 128 µg/mL | 26% | 8% |  |  |  |

Now from value to molecule, other results behind:

| MIC [1] | SMILES | inhibition at 5 µM [2] | inhibition at 40 µM [2] | MIC [3] | MBEC value against MSSA ATCC 25923 [4] | MIC ([3]; antibiotic alone) |
| --- | --- | --- | --- | --- | --- | --- |
| > 128 µg/mL | CCC1C(c2ccc(C(F)(F)F)cc2)=C(O)C(=O)N1CCc1ccccc1 (stereo not shown) [Compound 8, 5-Ethyl-3-hydroxy-1-phenethyl-4-(4-(trifluoromethyl)phenyl)-1,5-dihydro-2H-pyrrol-2-one] | 23% | 46% |  |  |  |
| 16 µg/mL (≈ 46.1 µM) | CCC1C(c2ccc(C(F)(F)F)cc2)=C(O)C(=O)N1c1ccccc1 (stereo not shown) [Compound 1, 5-Ethyl-3-hydroxy-1-phenyl-4-(4-(trifluoromethyl)phenyl)-1,5-dihydro-2H-pyrrol-2-one] | 5% | 85% |  |  |  |
| > 128 µg/mL | CCC1C(c2ccc(C(F)(F)F)cc2)=C(O)C(=O)N1c1cccnc1 (stereo not shown) [Compound 6, 5-Ethyl-3-hydroxy-1-(pyridin-3-yl)-4-(4-(trifluoromethyl)phenyl)-1,5-dihydro-2H-pyrrol-2-one] | 4% | 31% |  |  |  |
| 32 µg/mL (≈ 96 µM) | CC1C(c2ccc(C(F)(F)F)cc2)=C(O)C(=O)N1c1ccccc1 (stereo not shown) [Compound 2, 3-Hydroxy-5-methyl-1-phenyl-4-(4-(trifluoromethyl)phenyl)-1,5-dihydro-2H-pyrrol-2-one] | -26% | 72% |  |  |  |
| > 128 µg/mL | CCC1C(c2ccc(C(F)(F)F)cc2)=C(O)C(=O)N1Cc1cccs1 (stereo not shown) [Compound 7, 5-Ethyl-3-hydroxy-1-(thiophen-2-ylmethyl)-4-(4-(trifluoromethyl)phenyl)-1,5-dihydro-2H-pyrrol-2-one] | 54% | 79% |  |  |  |
| 16 µg/mL (≈ 43.8 µM) | CCC1C(c2ccc(C(F)(F)F)cc2)=C(O)C(=O)N1c1ccc(F)cc1 (stereo not shown) [Compound 4, 5-Ethyl-1-(4-fluorophenyl)-3-hydroxy-4-(4-(trifluoromethyl)phenyl)-1,5-dihydro-2H-pyrrol-2-one] | 22% | 81% |  |  |  |
| > 128 µg/mL | CC(C)C1C(c2ccc(C(F)(F)F)cc2)=C(O)C(=O)N1c1ccccc1 (stereo not shown) [Compound 10, 3-Hydroxy-5-isopropyl-1-phenyl-4-(4-(trifluoromethyl)phenyl)-1,5-dihydro-2H-pyrrol-2-one] | -5% | 3% |  |  |  |
